What was measured:
Format in all cases: biochemical
[1] = biological target: T1, human B-Raf protein kinase (Homo sapiens, UniProt P15056); assay: In vitro B-Raf/Mek1 composite kinase assay; conditions: recombinant GST-tagged human B-Raf (Δ1-415) with inactive Mek1, 2 μM ATP
T1 construct: GST (N); purchased Upstate Inc. 14-530 (B-Raf); 14-420 (Mek1)
Outline: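 Luminescent ATP-depletion assay using recombinant N-terminal GST-tagged human B-Raf (Δ1-415, 1 ng/well) in MOPS pH 7.2 buffer with 10 mM MgCl2. Compounds were preincubated 15 min at about 22° C, then the reaction ran 2 h before PKLight readout. Efficacy is expressed as percentage of positive-control (Bay 43-9006) activity.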

VEGFR2 kinase = biological target: T2, VEGFR2 kinase (Homo sapiens, UniProt P35968); assay: In vitro VEGFR2 kinase assay; conditions: ADP Quest assay, poly Glu:Tyr substrate, 60 μM ATP
T2 construct: purchased Invitrogen Inc PV3660
T2 sequence (P35968 20-1356): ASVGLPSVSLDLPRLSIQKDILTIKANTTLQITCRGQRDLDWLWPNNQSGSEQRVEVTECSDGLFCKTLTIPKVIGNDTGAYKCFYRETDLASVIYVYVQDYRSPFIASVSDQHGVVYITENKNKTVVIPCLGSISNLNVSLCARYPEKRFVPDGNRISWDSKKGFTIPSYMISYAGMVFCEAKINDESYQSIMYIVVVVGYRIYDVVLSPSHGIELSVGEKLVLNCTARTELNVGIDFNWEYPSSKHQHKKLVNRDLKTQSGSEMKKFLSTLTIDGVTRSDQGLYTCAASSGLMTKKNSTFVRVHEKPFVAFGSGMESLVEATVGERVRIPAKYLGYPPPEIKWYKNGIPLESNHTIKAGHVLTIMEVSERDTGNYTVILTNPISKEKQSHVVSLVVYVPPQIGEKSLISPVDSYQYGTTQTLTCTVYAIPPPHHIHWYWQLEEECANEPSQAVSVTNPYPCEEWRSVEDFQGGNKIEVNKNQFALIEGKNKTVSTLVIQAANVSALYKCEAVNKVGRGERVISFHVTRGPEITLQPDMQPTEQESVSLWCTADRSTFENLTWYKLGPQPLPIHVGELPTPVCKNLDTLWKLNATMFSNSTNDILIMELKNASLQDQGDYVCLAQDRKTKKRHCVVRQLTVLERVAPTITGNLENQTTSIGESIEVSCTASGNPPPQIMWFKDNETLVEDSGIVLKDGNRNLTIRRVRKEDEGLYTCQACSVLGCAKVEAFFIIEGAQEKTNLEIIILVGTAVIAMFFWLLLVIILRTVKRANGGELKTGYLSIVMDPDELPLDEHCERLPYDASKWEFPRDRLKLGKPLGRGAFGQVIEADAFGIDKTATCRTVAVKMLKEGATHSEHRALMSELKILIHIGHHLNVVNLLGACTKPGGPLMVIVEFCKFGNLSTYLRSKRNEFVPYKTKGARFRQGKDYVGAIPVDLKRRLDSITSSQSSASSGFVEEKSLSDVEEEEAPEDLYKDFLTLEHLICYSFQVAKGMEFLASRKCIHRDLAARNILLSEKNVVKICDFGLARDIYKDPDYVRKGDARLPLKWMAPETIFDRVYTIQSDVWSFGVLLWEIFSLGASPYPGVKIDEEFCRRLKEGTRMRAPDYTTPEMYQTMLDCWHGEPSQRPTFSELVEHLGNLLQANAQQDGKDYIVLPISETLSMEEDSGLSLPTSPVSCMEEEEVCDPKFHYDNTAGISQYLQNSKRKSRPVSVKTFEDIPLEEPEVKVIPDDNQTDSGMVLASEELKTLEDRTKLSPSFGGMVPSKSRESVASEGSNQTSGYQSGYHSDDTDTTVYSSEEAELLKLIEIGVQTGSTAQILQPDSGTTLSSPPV
Outline: (§1)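 Compound was preincubated 10 min at ~22 °C with 20 ng VEGFR2 or 25 ng PDGFRβ, then poly Glu:Tyr (4:1) substrate (0.25 μg) with 60 μM ATP (in added buffer) was reacted 2 h at 30 °C. ADP Quest resorufin fluorescence was read (ex 530/em 580) after 30 min. Efficacy is expressed as percent of positive-control (Bay 43-9006) activity, with DMSO as negative control.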

PDGFRβ kinase = biological target: T3, PDGFRβ kinase (Homo sapiens, UniProt P09619); assay: In vitro PDGFRβ kinase assay; conditions: ADP Quest assay, poly Glu:Tyr substrate, 60 μM ATP
T3 construct: purchased Invitrogen Inc. P3082
T3 sequence (P09619 33-1106): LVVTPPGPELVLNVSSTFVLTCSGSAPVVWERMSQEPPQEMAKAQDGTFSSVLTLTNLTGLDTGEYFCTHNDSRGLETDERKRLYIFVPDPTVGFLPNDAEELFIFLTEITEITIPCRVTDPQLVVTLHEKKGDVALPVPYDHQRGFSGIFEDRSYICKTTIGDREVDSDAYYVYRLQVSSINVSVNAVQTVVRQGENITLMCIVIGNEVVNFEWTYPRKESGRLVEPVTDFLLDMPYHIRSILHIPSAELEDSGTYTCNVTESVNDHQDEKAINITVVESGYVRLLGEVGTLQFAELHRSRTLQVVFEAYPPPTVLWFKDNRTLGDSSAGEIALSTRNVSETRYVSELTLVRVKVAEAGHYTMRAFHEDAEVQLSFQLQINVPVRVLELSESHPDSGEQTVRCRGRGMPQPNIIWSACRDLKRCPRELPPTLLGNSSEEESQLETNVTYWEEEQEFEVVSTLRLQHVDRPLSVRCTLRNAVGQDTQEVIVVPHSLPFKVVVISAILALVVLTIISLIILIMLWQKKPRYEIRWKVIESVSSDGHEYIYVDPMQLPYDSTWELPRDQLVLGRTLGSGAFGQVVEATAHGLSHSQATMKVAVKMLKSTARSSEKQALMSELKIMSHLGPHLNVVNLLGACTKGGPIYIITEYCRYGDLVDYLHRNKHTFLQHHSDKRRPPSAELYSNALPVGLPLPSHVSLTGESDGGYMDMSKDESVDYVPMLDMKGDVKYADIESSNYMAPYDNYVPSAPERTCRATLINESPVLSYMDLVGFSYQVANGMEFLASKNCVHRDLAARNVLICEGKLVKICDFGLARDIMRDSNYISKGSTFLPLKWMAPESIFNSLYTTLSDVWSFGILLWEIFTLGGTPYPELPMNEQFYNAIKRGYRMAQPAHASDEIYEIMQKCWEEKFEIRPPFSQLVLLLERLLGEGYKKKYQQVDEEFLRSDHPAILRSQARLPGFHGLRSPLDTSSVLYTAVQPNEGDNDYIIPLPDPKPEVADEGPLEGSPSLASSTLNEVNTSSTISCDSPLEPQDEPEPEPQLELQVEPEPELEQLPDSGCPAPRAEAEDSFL
Outline: as §1

T1 sequence (P15056 416-766): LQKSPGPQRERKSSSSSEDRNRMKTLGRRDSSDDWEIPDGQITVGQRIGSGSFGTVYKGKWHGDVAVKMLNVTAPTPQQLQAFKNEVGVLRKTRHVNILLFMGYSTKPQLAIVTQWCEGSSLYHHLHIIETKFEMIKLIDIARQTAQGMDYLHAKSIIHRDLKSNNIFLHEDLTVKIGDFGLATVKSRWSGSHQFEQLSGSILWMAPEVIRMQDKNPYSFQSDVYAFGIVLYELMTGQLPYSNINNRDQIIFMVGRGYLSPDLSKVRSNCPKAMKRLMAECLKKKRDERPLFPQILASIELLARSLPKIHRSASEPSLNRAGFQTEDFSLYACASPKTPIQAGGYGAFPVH

| Structure (SMILES) | IC50 [1] [µM] | IC50 (VEGFR2 kinase) [µM] | IC50 (PDGFRβ kinase) [µM] |
| --- | --- | --- | --- |
| Cn1cc(-c2nccc(Nc3ccc(NC(=O)Nc4ccc(Cl)c(C(F)(F)F)c4)cc3)n2)cn1 [Example 72, 1-(4-Chloro-3-trifluoromethyl-phenyl)-3-{4-[2-(1-methyl-1H-pyrazol-4-yl)-pyrimidin-4-ylamino]-phenyl}-urea] | ≤ 10 | ≤ 10 | ≤ 10 |
| CCN(CC)Cc1cc(NC(=O)Nc2cccc(Oc3cc(-c4nnco4)ncn3)c2)cc(C(F)(F)F)c1 [Example 25, 1-(3-(6-(1,3,4-Oxadiazol-2-yl)pyrimidin-4-yloxy)phenyl)-3-(3-((diethylamino)methyl)-5-(trifluoromethyl)phenyl)urea] | ≤ 10 | ≤ 10 | ≤ 10 |
| COC(=O)Cn1cc(-c2cc(Oc3cccc(NC(=O)Nc4ccc(Cl)c(C(F)(F)F)c4)c3)ncn2)cn1 [Example 54, Methyl 2-(4-(6-(3-(3-(4-chloro-3-(trifluoromethyl)phenyl)ureido)phenoxy)pyrimidin-4-yl)-1H-pyrazol-1-yl)acetate] | ≤ 10 | ≤ 10 | ≤ 10 |
| CN1CCN(Cc2cc(NC(=O)Nc3cccc(Oc4cc(-c5nnco5)ncn4)c3)cc(C(F)(F)F)c2)CC1 [Example 24, 1-(3-(6-(1,3,4-Oxadiazol-2-yl)pyrimidin-4-yloxy)phenyl)-3-(3-((4-methylpiperazin-1-yl)methyl)-5-(trifluoromethyl)phenyl)urea] | ≤ 10 | ≤ 10 | ≤ 10 |
| Cn1cc(-c2cc(Oc3ccc(NC(=O)Nc4ccc(C(F)(F)F)cc4)cc3)ncn2)cn1 [Example 101, 1-(4-(6-(1-Methyl-1H-pyrazol-4-yl)pyrimidin-4-yloxy)phenyl)-3-(4-(trifluoromethyl)phenyl)urea] | > 10 | ≤ 10 | ≤ 10 |
| COc1ccc(C(F)(F)F)cc1NC(=O)Nc1cc(Oc2cc(-c3cnn(C)c3)ncn2)ccc1F [Example 95, 1-(2-Fluoro-5-(6-(1-methyl-1H-pyrazol-4-yl)pyrimidin-4-yloxy)phenyl)-3-(2-methoxy-5-(trifluoromethyl)phenyl)urea] | ≤ 10 | ≤ 10 | ≤ 10 |
| O=C(Nc1ccc(Oc2cc(-c3ncon3)ncn2)cc1)Nc1ccc(Cl)c(C(F)(F)F)c1 [Example 3, 1-(4-Chloro-3-trifluoromethyl-phenyl)-3-[4-(6-[1,2,4]oxadiazol-3-yl-pyrimidin-4-yloxy)-phenyl]-urea] | > 10 | ≤ 10 | ≤ 10 |
| CNC(=O)c1cc(Oc2ccc(N(C)C(=O)Nc3ccc(Cl)c(C(F)(F)F)c3)cc2)ccn1 [Example 114, 4-{4-[3-(4-Chloro-3-trifluoromethyl-phenyl)-1-methyl-ureido]-phenoxy}-pyridine-2-carboxylic acid methylamide] | ≤ 10 | ≤ 10 | ≤ 10 |
| Cn1ncnc1-c1cc(Oc2cccc(NC(=O)Nc3ccc(Cl)c(C(F)(F)F)c3)c2)ncn1 [Example 16, 1-(4-Chloro-3-(trifluoromethyl)phenyl)-3-(3-(6-(1-methyl-1H-1,2,4-triazol-5-yl)pyrimidin-4-yloxy)phenyl)urea] | ≤ 10 | ≤ 10 | ≤ 10 |
| CN1CCC(Oc2cc(Cl)c(C(F)(F)F)cc2NC(=O)Nc2ccc(Oc3ccnc(-c4nnco4)c3)cc2)CC1 [Example 44] | ≤ 10 | ≤ 10 | ≤ 10 |
| CNC(=O)Cn1ccc(-c2cc(Oc3cccc(NC(=O)Nc4ccc(Cl)c(C(F)(F)F)c4)c3)ncn2)n1 [Example 60, 2-(3-(6-(3-(3-(4-Chloro-3-(trifluoromethyl)phenyl)ureido)phenoxy)pyrimidin-4-yl)-1H-pyrazol-1-yl)-N-methylacetamide] | ≤ 10 | ≤ 10 | ≤ 10 |
| Cn1cc(-c2nccc(Oc3cccc(NC(=O)Nc4cc(C(F)(F)F)cc(C(F)(F)F)c4)c3)n2)cn1 [Example 84, 1-(3,5-Bis(trifluoromethyl)phenyl)-3-(3-(2-(1-methyl-1H-pyrazol-4-yl)pyrimidin-4-yloxy)phenyl)urea] | ≤ 10 | ≤ 10 | ≤ 10 |
| COc1ccc(C(F)(F)F)cc1NC(=O)Nc1cccc(Oc2cc(-c3cnn(C)c3)ncn2)c1 [Example 94, 1-(2-Methoxy-5-(trifluoromethyl)phenyl)-3-(3-(6-(1-methyl-1H-pyrazol-4-yl)pyrimidin-4-yloxy)phenyl)urea] | ≤ 10 | ≤ 10 | ≤ 10 |
| O=C(Nc1cccc(Oc2cc(-c3ncco3)ncn2)c1)Nc1ccc(Cl)c(C(F)(F)F)c1 [Example 14, 1-(4-chloro-3-(trifluoromethyl)phenyl)-3-(3-(6-(oxazol-2-yl)pyrimidin-4-yloxy)phenyl)urea] | ≤ 10 | ≤ 10 | ≤ 10 |
| O=C(Nc1ccc(Oc2cc(-n3cncn3)ncn2)cc1)Nc1ccc(Cl)c(C(F)(F)F)c1 [Example 1, 1-(4-Chloro-3-trifluoromethyl-phenyl)-3-[4-(6-[1,2,4]triazol-1-yl-pyrimidin-4-yloxy)-phenyl]-urea] | ≤ 10 | ≤ 10 | ≤ 10 |
| Cn1cc(-c2nccc(Oc3cccc(NC(=O)Nc4cccc(C(F)(F)F)c4)c3)n2)cn1 [Example 98, 1-(3-(2-(1-Methyl-1H-pyrazol-4-yl)pyrimidin-4-yloxy)phenyl)-3-(3-(trifluoromethyl)phenyl)urea] | ≤ 10 | ≤ 10 | ≤ 10 |
| Cn1cc(-c2cc(Oc3ccc(NC(=O)Nc4ccc(Cl)c(C(F)(F)F)c4)c(F)c3)ncn2)cn1 [Example 92, 1-(4-Chloro-3-(trifluoromethyl)phenyl)-3-(2-fluoro-4-(6-(1-methyl-1H-pyrazol-4-yl)pyrimidin-4-yloxy)phenyl)urea] | ≤ 10 | ≤ 10 | ≤ 10 |
| Cc1cc(NC(=O)Nc2cc(Oc3cc(-c4cnn(C)c4)ncn3)ccc2F)no1 [Example 104, 1-(2-Fluoro-5-(6-(1-methyl-1H-pyrazol-4-yl)pyrimidin-4-yloxy)phenyl)-3-(5-methylisoxazol-3-yl)urea] | ≤ 10 | ≤ 10 | ≤ 10 |
| COC(=O)Cn1ccc(-c2cc(Oc3cccc(NC(=O)Nc4ccc(Cl)c(C(F)(F)F)c4)c3)ncn2)n1 [Example 58, Methyl 2-(3-(6-(3-(3-(4-chloro-3-(trifluoromethyl)phenyl)ureido)phenoxy)pyrimidin-4-yl)-1H-pyrazol-1-yl)acetate] | ≤ 10 | ≤ 10 | ≤ 10 |
| O=C(Nc1cccc(Oc2cc(-c3ccnc4ccnn34)ncn2)c1)Nc1ccc(Cl)c(C(F)(F)F)c1 [Example 106, 1-(4-Chloro-3-(trifluoromethyl)phenyl)-3-(3-(6-(pyrazolo[1,5-a]pyrimidin-7-yl)pyrimidin-4-yloxy)phenyl)urea] | ≤ 10 | ≤ 10 | ≤ 10 |
| O=C(Nc1ccc(Oc2ccnc(-n3cncn3)n2)cc1)Nc1ccc(Cl)c(C(F)(F)F)c1 [Example 2, 1-(4-Chloro-3-trifluoromethyl-phenyl)-3-[4-(2-[1,2,4]triazol-1-yl-pyrimidin-4-yloxy)-phenyl]-urea] | > 10 | > 10 | > 10 |
| Cc1nnc(-c2cc(Oc3cccc(NC(=O)Nc4ccc(Cl)c(C(F)(F)F)c4)c3)ncn2)o1 [Example 11, 1-(4-Chloro-3-(trifluoromethyl)phenyl)-3-(3-(6-(5-methyl-1,3,4-oxadiazol-2-yl)pyrimidin-4-yloxy)phenyl)urea] | ≤ 10 | ≤ 10 | ≤ 10 |
| Cn1ccc(-c2cc(Oc3cccc(NC(=O)Nc4ccc(Cl)c(C(F)(F)F)c4)c3)ncn2)n1 [Example 61, 1-(4-Chloro-3-(trifluoromethyl)phenyl)-3-(3-(6-(1-methyl-1H-pyrazol-3-yl)pyrimidin-4-yloxy)phenyl)urea] | ≤ 10 | > 10 | > 10 |
| Cn1cc(-c2nccc(Oc3ccc(NC(=O)Nc4ccc(C(F)(F)F)cc4)cc3)n2)cn1 [Example 102, 1-(4-(2-(1-Methyl-1H-pyrazol-4-yl)pyrimidin-4-yloxy)phenyl)-3-(4-(trifluoromethyl)phenyl)urea] | ≤ 10 | ≤ 10 | ≤ 10 |
| Cc1cc(NC(=O)Nc2ccc(Oc3ccnc(-c4cnn(C)c4)n3)cc2)no1 [Example 105, 1-(4-(2-(1-Methyl-1H-pyrazol-4-yl)pyrimidin-4-yloxy)phenyl)-3-(5-methylisoxazol-3-yl)urea] | > 10 | ≤ 10 | ≤ 10 |
| CN(C(=O)Nc1ccc(Cl)c(Cl)c1)c1ccc(Oc2ccnc(-c3nnco3)c2)cc1 [Example 113, 3-(3,4-Dichloro-phenyl)-1-methyl-1-[4-(2-[1,3,4]oxadiazol-2-yl-pyridin-4-yloxy)-phenyl]-urea] | ≤ 10 | > 10 | ≤ 10 |
| Cn1cc(-c2cc(Oc3ccc(F)c(NC(=O)Nc4ccc(C(F)(F)F)cc4Cl)c3)ncn2)cn1 [Example 97, 1-(2-Chloro-4-(trifluoromethyl)phenyl)-3-(2-fluoro-5-(6-(1-methyl-1H-pyrazol-4-yl)pyrimidin-4-yloxy)phenyl)urea] | ≤ 10 | ≤ 10 | ≤ 10 |

Source: patent US20070155764A1, “NOVEL SUBSTITUTED PYRIMIDINYLOXY UREAS USEFUL AS INHIBITORS OF PROTEIN KINASES” (KALYPSYS, INC., priority 2005, published 2007)
